The melting point is the temperature, or range, at which the solid turns liquid. Compound `O=C(O)c1ccc(CN([C@H](CO)c2ccccc2)S(=O)(=O)c2ccc(Cl)cc2)cc1` (hydrate or solvate) [Example 95, (S)-4-((4-Chloro-N-(2-hydroxy-1-phenylethyl)phenylsulfonamido)methyl)benzoic acid] yielded a melting point of 86 to 88 °C.

For the compound `CC[C@@H](c1ccccc1)N(Cc1ccc(S(C)(=O)=O)cc1)S(=O)(=O)c1ccc(Cl)cc1` [Example 2, (S)-4-Chloro-N-(4-(methylsulfonyl)benzyl)-N-(1phenylpropyl)benzenesulfonamide], the melting point fell in the range of 61 to 63 °C. `CC[C@@H](c1ccccc1)N(Cc1ccc(C(=O)OC)cc1)S(=O)(=O)c1ccc(Cl)cc1` [Example 3, (S)-Methyl 4-((4-chloro-N-(1-phenylpropyl)phenylsulfonamido)methyl)benzoate] gave a melting point of 108 to 110 °C. Then `COC(=O)c1ccc(CN([C@@H](CO)c2ccccc2)S(=O)(=O)c2ccc(Cl)cc2)cc1` [Example 7, (R)-Methyl 4-((4-chloro-N-(2-hydroxy-1-phenylethyl)phenylsulfonamido)methyl)benzoate], with 104 to 106 °C; and `COC(=O)c1ccc(CN([C@@H](C)c2ccccc2)S(=O)(=O)c2ccc(Cl)cc2)cc1` [Example 12, (S)-Methyl 4-((4-chloro-N-(1-phenylethyl)phenylsulfonamido)methyl)benzoate], with 105 to 106 °C; and `CC[C@@H](c1ccccc1)N(Cc1ccc(C(=O)OC)cc1)S(=O)(=O)c1ccc(C(F)(F)F)cc1` [Example 18, (S)-Methyl 4-((N-(1-phenylpropyl)-4-(trifluoromethyl)phenylsulfonamido)methyl)benzoate], with 70 to 72 °C.

Compound `CC[C@@H](c1ccccc1)N(Cc1ccc(C(=O)OC)cc1)S(=O)(=O)c1ccc(F)cc1` [Example 21, (S)-Methyl 4-((4-fluoro-N-(1-phenylpropyl)phenylsulfonamido)methyl)benzoate] came in with a melting point of 107 to 109 °C. `CC[C@@H](c1ccccc1)N(Cc1ccc(C(=O)O)cc1OC)S(=O)(=O)c1ccc(Cl)cc1` [Example 23, (S)-4-((4-Chloro-N-(1-phenylpropyl)phenylsulfonamido)methyl)-3-methoxybenzoic acid] showed a melting point of 176 to 178 °C.

`CCC(c1ccccc1)N(Cc1ccc(C(=O)OC)cc1)S(=O)(=O)c1ccc(Cl)cc1` (centres unmarked) [Example 25, Methyl 4-((4-chloro-N-(1-phenylpropyl)phenylsulfonamido)methyl)benzoate] yielded a melting point of 105 to 107 °C.

`CCC(c1ccccn1)N(Cc1ccc(C(=O)OC)cc1)S(=O)(=O)c1ccc(F)cc1` (centres unmarked) [Example 26, Methyl 4-((4-fluoro-N-(1-(pyridin-2-yl)propyl)phenylsulfonamido)methyl)benzoate] returned a melting point of 82 to 84 °C. Compound `CCC(c1ccc(F)cc1)N(Cc1ccc(C(=O)OC)cc1)S(=O)(=O)c1ccc(Cl)cc1` (centres unmarked) [Example 30, Methyl 4-((4-chloro-N-(1-(4-fluorophenyl)propyl)phenylsulfonamido)methyl)benzoate] showed a melting point of 95 to 97 °C.

The compound `CCC(CC)N(Cc1ccc(S(C)(=O)=O)cc1)S(=O)(=O)c1ccc(Cl)cc1` [Example 31, 4-Chloro-N-(4-(methylsulfonyl)benzyl)-N-(pentan-3-yl)benzenesulfonamide] returned a melting point of 166 to 168 °C. For the compound `CCC(CC)N(Cc1ccc(C(=O)OC)cc1)S(=O)(=O)c1ccc(F)cc1` [Example 32, Methyl 4-((4-fluoro-N-(pentan-3-yl)phenylsulfonamido)methyl)benzoate], the melting point was in the range of 78 to 80 °C.

Compound `CCC(CC)N(Cc1ccc(C#N)cc1)S(=O)(=O)c1ccc(Cl)cc1` [Example 33, 4-Chloro-N-(4-cyanobenzyl)-N-(pentan-3-yl)benzenesulfonamide] showed a melting point of 123 to 125 °C. Take `CCC(CC)N(Cc1ccc(C(=O)OC)cn1)S(=O)(=O)c1ccc(F)cc1` [Example 34, Methyl 6-((4-fluoro-N-(pentan-3-yl)phenylsulfonamido)methyl)nicotinate]: the melting point was 117 to 119 °C. Compound `CCC(CC)N(Cc1ccc(C(=O)OC)cc1)S(=O)(=O)c1ccc(C)cc1` [Example 35, Methyl 4-((4-methyl-N-(pentan-3-yl)phenylsulfonamido)methyl)benzoate] displayed a melting point of 106 to 108 °C.

As to `CCC(CC)N(Cc1ccc(C#N)cc1F)S(=O)(=O)c1ccc(F)cc1` [Example 36, N-(4-Cyano-2-fluorobenzyl)-4-fluoro-N-(pentan-3-yl)benzenesulfonamide], the melting point was in the range of 102 to 104 °C. `CCC(CC)N(Cc1ccc(C(=O)O)cn1)S(=O)(=O)c1ccc(F)cc1` [Example 37, 6-((4-Fluoro-N-(pentan-3-yl)phenylsulfonamido)methyl)nicotinic acid] registered a melting point of 145 to 147 °C. In turn, `CCC(CC)N(Cc1ccc(C(=O)OC)cc1)S(=O)(=O)c1ccc(Cl)cc1` [Example 40, Methyl 4-((4-chloro-N-(pentan-3-yl)phenylsulfonamido)methyl)benzoate] yielded a melting point of 95 to 97 °C. Compound `COC(=O)c1ccc(CN(C(CF)CF)S(=O)(=O)c2ccc(F)cc2)cc1` [Example 41] yielded a melting point of 103 to 105 °C.

For the compound `COC(=O)c1ccc(CN(C(CO)CO)S(=O)(=O)c2ccc(Cl)s2)cc1` [Example 42, Methyl 4-((5-chloro-N-(1,3-dihydroxypropan-2-yl)thiophene-2-sulfonamido)methyl)benzoate], the melting point fell in the range of 134 to 135 °C. Take `CC(C)N(Cc1ccc(Cl)c(Cl)c1)S(=O)(=O)c1ccc(Cl)s1` [Example 43, 5-Chloro-N-(3,4-dichlorobenzyl)-N-isopropylthiophene-2-sulfonamide]: the melting point is 66 to 67 °C. With `COC(=O)c1ccc(CN(C(C)C)S(=O)(=O)c2ccc(Cl)cc2)cc1` [Example 44, Methyl 4-((4-chloro-N-isopropylphenylsulfonamido)methyl)benzoate] the figure was 110 to 112 °C. On to `COC(=O)c1ccc(CN(C(C)C)S(=O)(=O)c2ccc(F)cc2)cc1` [Example 45, Methyl 4-((4-fluoro-N-isopropylphenylsulfonamido)methyl)benzoate], for which the melting point lay within 118 to 120 °C.

As to `CC(C)N(Cc1ccc(Cl)c(Cl)c1)S(=O)(=O)c1cc2ccccc2s1` [Example 48, N-(3,4-Dichlorobenzyl)-N-isopropylbenzo[b]thiophene-2-sulfonamide], the melting point lay within 133 to 135 °C. In the case of `O=C(O)c1ccc(CN([C@@H](CO)c2ccccc2)S(=O)(=O)c2ccc(Cl)cc2)cc1` [Example 51, (R)-4-((4-Chloro-N-(2-hydroxy-1-phenylethyl)phenylsulfonamido)methyl)benzoic acid], the melting point is 85 to 87 °C. `CC[C@@H](c1ccccc1)N(Cc1ccc(C(=O)O)cc1F)S(=O)(=O)c1ccc(Cl)cc1` [Example 52, (S)-4-((4-Chloro-N-(1-phenylpropyl)phenylsulfonamido)methyl)-3-fluorobenzoic acid] had a melting point of 118 to 120 °C. Consider `O=C(O)c1ccc(CN(C(CO)CO)S(=O)(=O)c2ccc(Cl)s2)cc1` [Example 53, 4-((5-Chloro-N-(1,3-dihydroxypropan-2-yl)thiophene-2-sulfonamido)methyl)benzoic acid], for which the melting point is 163 to 165 °C.

With `CCC(c1ccc(C(F)(F)F)cc1)N(Cc1ccc(C(=O)O)cc1)S(=O)(=O)c1ccc(Cl)cc1` (centres unmarked) [Example 54, 4-((4-Chloro-N-(1-(4-(trifluoromethyl)phenyl)propyl)phenylsulfonamido)methyl)benzoic acid], the melting point is 108 to 110 °C. For `CC[C@@H](c1ccccc1)N(Cc1cccc(C(=O)O)c1)S(=O)(=O)c1ccc(Cl)cc1` [Example 59, (S)-3-((4-Chloro-N-(1-phenylpropyl)phenylsulfonamido)methyl)benzoic acid], the melting point lay in the range of 65 to 67 °C. On to `CC[C@@H](c1ccccc1)N(Cc1ccc(C(=O)NCC(=O)O)cc1)S(=O)(=O)c1ccc(Cl)cc1` [Example 64, (S)-2-(4-((4-Chloro-N-(1-phenylpropyl)phenylsulfonamido)methyl)benzamido)acetic acid], for which the melting point lay in the range of 136 to 139 °C.

For the compound `CCC(CC)N(Cc1ccc(C#N)nc1)S(=O)(=O)c1ccc(Cl)cc1` [Example 72], the melting point is 108 to 110 °C. Take `CCC(CC)N(Cc1ccc(C#N)nc1)S(=O)(=O)c1ccc(F)cc1` [Example 73, N-((6-Cyanopyridin-3-yl)methyl)-4-fluoro-N-(pentan-3-yl)benzenesulfonamide]: the melting point is 118 to 120 °C. Regarding `CC[C@@H](c1ccccc1)N(Cc1ccc(C(=O)NC[C@H](C)O)cc1)S(=O)(=O)c1ccc(Cl)cc1` [Example 80, 4-((4-Chloro-N—((S)-1-phenylpropyl)phenylsulfonamido)methyl)-N-((S)-2-hydroxypropyl)benzamide], the melting point lay within 78 to 80 °C. `CC[C@@H](c1ccc(C#N)cc1)N(Cc1ccc(C#N)cc1)S(=O)(=O)c1ccc(Cl)cc1` [Example 84, (S)-4-Chloro-N-(4-cyanobenzyl)-N-(1-(4-cyanophenyl)propyl)benzenesulfonamide]: the melting point was 120 to 121 °C.

The compound `CCC(c1ccc(Cl)nc1)N(Cc1ccc(C(=O)O)cc1)S(=O)(=O)c1ccc(Cl)cc1` (centres unmarked) [Example 89, 4-((4-Chloro-N-(1-(6-chloropyridin-3-yl)propyl)phenylsulfonamido)methyl)benzoic acid] registered a melting point of 111 to 113 °C. Compound `COC(=O)c1ccc(CN([C@@H](CO)Cc2ccccc2)S(=O)(=O)c2ccc(Cl)cc2)cc1` [Example 94, (R)-Methyl 4-((4-chloro-N-(1-hydroxy-3-phenylpropan-2-yl)phenylsulfonamido)-methyl)benzoate] returned a melting point of 128 to 130 °C. With `CC[C@@H](c1ccc(C#N)cc1)N(Cc1ccc(C(=O)O)cc1)S(=O)(=O)c1ccc(Cl)cc1` [Example 103, (S)-4-((4-Chloro-N-(1-(4-cyanophenyl)propyl)phenylsulfonamido)methyl)benzoic acid] the figure was 132 to 133 °C.

For the origin of these results see patent US20130310384A1, “Sulfonamide-Containing Compounds” (THE BRIGHAM AND WOMEN'S HOSPITAL, INC., priority 2010, published 2013).
